Experimental data as given in ChEMBL document CHEMBL1201862, “PubChem BioAssay data set” (2004).
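Compound exposure: 48 hours, 5 concentrations, 96-well plates. Here, GI50 denotes the concentration required for 50% inhibition of growth.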 Active and inactive are the calls of the source. Rule as the data show it: active = GI50 up to about 1.1 µM and inactive = higher.

Experiments:
Experiment in all cases: DTP human tumour cell line panel, 48 h
[1] = system: ACHN
[2] = system: BT-549
[3] = system: CAKI-1
[4] = system: HCT-116
[5] = system: HL-60
[6] = system: HOP-92
[7] = system: Hs-578T
[8] = system: IGROV-1
[9] = system: KM12
[10] = system: NCI-H460
[11] = system: NCI/ADR-RES
[12] = system: RPMI-8226
[13] = system: RXF 393
[14] = system: SF-539
[15] = system: SK-MEL-5
[16] = system: SK-OV-3
[17] = system: SN12C
[18] = system: T47D
[19] = system: U-251

With Cc1cc(NC(=O)NC(=O)c2ccccc2NC(=O)C(C)N)ccc1Oc1ncc(Br)cn1 (configuration not stated) the GI50 [1] was 1.22 µM (inactive), the GI50 [2] was 26.8 µM (inactive) and the GI50 [3] was 0.0173 µM (active). The GI50 [4] was 0.714 µM (active), the GI50 [5] was 0.0131 µM (active) and the GI50 [6] was 1.92 µM (inactive). The GI50 [7] was 0.0159 µM (active), the GI50 [8] was 0.153 µM (active) and the GI50 [9] was 0.169 µM (active). For the same compound, the GI50 [10] was 0.179 µM (active), the GI50 [11] was 0.0208 µM (active) and the GI50 [12] was 0.207 µM (active). For the same compound, the GI50 [13] was 0.0111 µM (active), the GI50 [14] was 0.0158 µM (active) and the GI50 [15] was 0.0457 µM (active). The GI50 [16] was 0.0178 µM (active), the GI50 [17] was 0.0885 µM (active) and the GI50 [18] was 15.1 µM (inactive). For the same compound, the GI50 [19] was 0.202 µM (active).
C=C1C[C@H](O)[C@H](Br)C(C)(C)C12CCC(C)(Cl)C(Br)C2 (some centres not stated) was tested, and the GI50 [1] was 5.05 µM (inactive), the GI50 [2] was 7.53 µM (inactive) and the GI50 [3] was 5.09 µM (inactive). The GI50 [4] was 6.38 µM (inactive), the GI50 [5] was 0.508 µM (active) and the GI50 [6] was 1.5 µM (inactive). For the same compound, the GI50 [7] was 5.2 µM (inactive), the GI50 [8] was 4.38 µM (inactive) and the GI50 [9] was 1.48 µM (inactive). The GI50 [10] was 1.69 µM (inactive), the GI50 [11] was 4.58 µM (inactive) and the GI50 [12] was 0.589 µM (active). The GI50 [13] was 1.95 µM (inactive), the GI50 [14] was 15.6 µM (inactive) and the GI50 [15] was 3.04 µM (inactive). For the same compound, the GI50 [16] was 3.03 µM (inactive), the GI50 [17] was 4.37 µM (inactive) and the GI50 [18] was 0.746 µM (active). The GI50 [19] was 0.272 µM (active).
C#CCn1c(=O)c(C)cn(/C(=C/C(=O)OCC)C(=O)OCC)c1=O was tested, and the GI50 [1] was 1.84 µM (inactive), the GI50 [2] was 8.11 µM (inactive) and the GI50 [3] was 1.66 µM (inactive). The GI50 [4] was 4.67 µM (inactive), the GI50 [5] was 3.61 µM (inactive) and the GI50 [6] was 3.01 µM (inactive). For the same compound, the GI50 [7] was 10.6 µM (inactive), the GI50 [8] was 3.75 µM (inactive) and the GI50 [9] was 17.4 µM (inactive). For the same compound, the GI50 [10] was 1.95 µM (inactive), the GI50 [11] was 3.91 µM (inactive) and the GI50 [12] was 3.98 µM (inactive). The GI50 [13] was 0.569 µM (active), the GI50 [14] was 1.64 µM (inactive) and the GI50 [15] was 11.7 µM (inactive). The GI50 [16] was 21.9 µM (inactive), the GI50 [17] was 8.57 µM (inactive) and the GI50 [18] was 4.73 µM (inactive). The GI50 [19] was 9.98 µM (inactive).
For COc1cc(/C=C2\N=C(c3ccccc3)N(c3nc4ccc(Sc5ccccc5)cc4[nH]3)C2=O)ccc1O, the GI50 [1] was 26.9 µM (inactive), the GI50 [2] was 20 µM (inactive) and the GI50 [3] was 23.9 µM (inactive). For the same compound, the GI50 [4] was 21.1 µM (inactive), the GI50 [5] was 11.2 µM (inactive) and the GI50 [6] was 62.2 µM (inactive). The GI50 [7] was 32.4 µM (inactive), the GI50 [8] was 37.8 µM (inactive) and the GI50 [9] was 15.2 µM (inactive). The GI50 [10] was 19.5 µM (inactive), the GI50 [11] was 18.7 µM (inactive) and the GI50 [12] was 16.7 µM (inactive). The GI50 [13] was 28.5 µM (inactive), the GI50 [15] was 14.7 µM (inactive) and the GI50 [16] was 30.4 µM (inactive). The GI50 [17] was 26.9 µM (inactive), the GI50 [18] was 27 µM (inactive) and the GI50 [19] was 19.4 µM (inactive).
In the case of CCOC(=O)/C=C/[C@H](O[Si](c1ccccc1)(c1ccccc1)c1ccccc1)C(C)(C)C, the GI50 [1] was > 31.6 µM (inactive), the GI50 [2] was > 10 µM (inactive) and the GI50 [3] was 28.4 µM (inactive). The GI50 [4] was 22.5 µM (inactive), the GI50 [5] was > 100 µM (inactive) and the GI50 [6] was > 31.6 µM (inactive). For the same compound, the GI50 [7] was 20.5 µM (inactive), the GI50 [8] was > 31.6 µM (inactive) and the GI50 [9] was 15.8 µM (inactive). The GI50 [10] was > 10 µM (inactive), the GI50 [11] was 28.5 µM (inactive) and the GI50 [12] was 3.44 µM (inactive). For the same compound, the GI50 [13] was 15.5 µM (inactive), the GI50 [14] was > 31.6 µM (inactive) and the GI50 [15] was 10.2 µM (inactive). For the same compound, the GI50 [16] was > 31.6 µM (inactive), the GI50 [17] was > 31.6 µM (inactive) and the GI50 [18] was 11.5 µM (inactive). The GI50 [19] was > 31.6 µM (inactive).
With NC1=NN(c2ccccc2)C2(c3ccncc3C(=O)O)C1C(N)=NN2c1ccccc1 (configuration not stated) the GI50 [1] was > 100 µM (inactive), the GI50 [2] was > 100 µM (inactive) and the GI50 [3] was > 100 µM (inactive). The GI50 [4] was > 100 µM (inactive), the GI50 [5] was > 100 µM (inactive) and the GI50 [6] was > 100 µM (inactive). For the same compound, the GI50 [7] was > 100 µM (inactive), the GI50 [8] was > 100 µM (inactive) and the GI50 [9] was > 100 µM (inactive). The GI50 [10] was > 100 µM (inactive), the GI50 [11] was > 100 µM (inactive) and the GI50 [12] was > 100 µM (inactive). The GI50 [13] was > 100 µM (inactive), the GI50 [14] was > 100 µM (inactive) and the GI50 [15] was > 100 µM (inactive). For the same compound, the GI50 [16] was > 100 µM (inactive), the GI50 [17] was > 100 µM (inactive) and the GI50 [18] was > 100 µM (inactive). For the same compound, the GI50 [19] was > 100 µM (inactive).
For COC(=O)C12CCC(C)(C)CC1C1=CCC3C4(C)CC(O)C(O)C(C)(C(=O)OC)C4CCC3(C)C1(CO)CC2 (configuration not stated), the GI50 [1] was 13.9 µM (inactive), the GI50 [2] was 14.6 µM (inactive) and the GI50 [3] was 14 µM (inactive). For the same compound, the GI50 [4] was 13.7 µM (inactive), the GI50 [5] was 7.52 µM (inactive) and the GI50 [6] was 14.2 µM (inactive). The GI50 [7] was 12.6 µM (inactive), the GI50 [8] was 17.8 µM (inactive) and the GI50 [9] was 9.38 µM (inactive). The GI50 [10] was 15.7 µM (inactive), the GI50 [11] was 12.9 µM (inactive) and the GI50 [12] was 12.1 µM (inactive). The GI50 [13] was 6.68 µM (inactive), the GI50 [14] was 15.7 µM (inactive) and the GI50 [15] was 16 µM (inactive). For the same compound, the GI50 [16] was 16.9 µM (inactive), the GI50 [17] was 18.3 µM (inactive) and the GI50 [18] was 10.7 µM (inactive). The GI50 [19] was 18.5 µM (inactive).
